In the NIST ThermoML archive (doi:10.1021/je700512a):
Numbers after ± are expanded uncertainties.

Conditions: Liquid, Ebulliometric method (Recirculating still)

| Compound | vapor or sublimation pressure (288.15 K) | vapor or sublimation pressure (298.15 K) | vapor or sublimation pressure (308.15 K) |
| --- | --- | --- | --- |
| C1COCCO1 [1,4-dioxane] | 2.703 ± 0.053 kPa | 4.975 ± 0.061 kPa | 8.119 ± 0.068 kPa |
| O [water] | 1.706 ± 0.04 kPa | 3.172 ± 0.047 kPa | 5.556 ± 0.055 kPa |
